Among the data in ChEMBL document CHEMBL1138765, “Design, synthesis, and biological evaluation of biotin conjugates of 2-cyano-3,12-dioxooleana-1,9(11)-dien-28-oic acid for the isolation of the protein targets” (J Med Chem, 2004) are IC50 values, retold here.

This test deals with MCF7. Kind of test: Inhibitory concentration against proliferation of MCF-7 (ER Positive) breast cancer cells. In kind it is functional, cell-based. The following applies: Homo sapiens.
As a reminder, the IC50 is the point on the concentration scale where inhibition reaches its midpoint. A low value points to greater potency in that assay. In the case of `COC(=O)[C@]12CCC(C)(C)CC1C1C(=O)C=C3[C@@]4(C)C=C(C#N)C(=O)[C@@](C)(COC(=O)CCCCCNC(=O)CCCC[C@@H]5SC[C@@H]6NC(=O)N[C@@H]65)[C@@H]4CC[C@@]3(C)[C@]1(C)CC2` (stereo partly specified), the half-maximal inhibitory concentration (IC50) is 550 nM.
The figure for `COC(=O)[C@]12CCC(C)(C)CC1C1C(=O)C=C3[C@@]4(C)C=C(C#N)C(=O)[C@@](C)(CO)[C@@H]4CC[C@@]3(C)[C@]1(C)CC2` (stereo partly specified) is 80 nM.
As for `CC1(C)CC[C@]2(C(=O)NCCCCCCNC(=O)CCCCC3SC[C@@H]4NC(=O)N[C@H]34)CC[C@]3(C)C(C(=O)C=C4[C@@]5(C)C=C(C#N)C(=O)C(C)(C)[C@@H]5CC[C@]43C)C2C1` (stereo partly specified), half-maximal inhibition (IC50) was put at 3310 nM.
For `CC1(C)CC[C@]2(C(=O)NCCCC(=O)NCCCCCCNC(=O)CCCCC3SC[C@@H]4NC(=O)N[C@H]34)CC[C@]3(C)C(C(=O)C=C4[C@@]5(C)C=C(C#N)C(=O)C(C)(C)[C@@H]5CC[C@]43C)C2C1` (stereo partly specified) the value was 5260 nM.
The figure for `COC(=O)[C@]12CCC(C)(C)C[C@H]1[C@H]1C(=O)C=C3[C@@]4(C)C=C(C#N)C(=O)C(C)(C)[C@@H]4CC[C@@]3(C)[C@]1(C)CC2` [BARDOXOLONE METHYL] is 50 nM; for `CC1(C)CC[C@]2(C(=O)O)CC[C@]3(C)[C@H](C(=O)C=C4[C@@]5(C)C=C(C#N)C(=O)C(C)(C)[C@@H]5CC[C@]43C)[C@@H]2C1` [BARDOXOLONE] it is 160 nM.
